Test: Average cumulative delivery / flux across cadaver skin
Format: in vitro ADME
Settings: FIG. 15
Excerpt: The prodrug of Naltrexone with the PEG conjugation increased the molecular weight of the compound to be about 690 g/mole. […] The average flux for the Naltrexone was about 15.37 micrograms (μg) per hour per cm^2.

O=C1CC[C@@]2(O)[C@H]3Cc4ccc(O)c5c4[C@@]2(CCN3CC2CC2)[C@H]1O5 [Naltrexone]
average flux across the cadaver skin: about 15.37 micrograms (μg) per hour per cm^2

— patent US20190231707A1, “TRANSDERMAL DRUG DELIVERY DEVICE FOR DELIVERING OPIOIDS” (CHRONO THERAPEUTICS INC., priority 2016, published 2019)
